Experimental data from ChEMBL document CHEMBL1141794, “Alkamides from the leaves of Zanthoxylum syncarpum” (J Nat Prod, 2005).
pIC50: −log10 of the molar value. The source made the active and inactive calls. The calls are words filed in the database; no cut-off is given here.

How the values were obtained:
Plasmodium falciparum [1] = test: microbe, parasite or virus in culture; settings: D6, 48 h
Description: (§1) Antiplasmodial activity against chloroquine-sensitive Plasmodium falciparum D6 after 48 hrs

Plasmodium falciparum [2] = test: microbe, parasite or virus in culture; settings: W2, 48 h
Description: (§2) Antiplasmodial activity against chloroquine-resistant Plasmodium falciparum W2 after 48 hrs

Plasmodium falciparum [3] = settings: W2
Description: as §2

Plasmodium falciparum [4] = settings: D6
Description: as §1

Structure (SMILES)	pIC50 (Plasmodium falciparum [1])	pIC50 (Plasmodium falciparum [2])	Activity (Plasmodium falciparum [3])	Activity (Plasmodium falciparum [4])
COc1ccc([C@H](CNC(=O)/C=C/c2ccccc2)C(=O)/C=C/c2ccccc2)cc1OC	5.38	5.21	–	–
COc1ccc(C(CNC(=O)/C=C/c2ccccc2)OC(C)=O)cc1OC (stereo not drawn)	–	–	inactive	inactive
C[C@@H]1CC[C@H]2[C@@H](C)C(=O)O[C@@H]3O[C@@]4(C)CC[C@@H]1[C@]32OO4 [ARTEMISININ]	7.40	7.52	–	–
COc1ccc(C(O)CNC(=O)/C=C/c2ccccc2)cc1OC (stereo not drawn)	–	–	inactive	inactive
